From patent US11865096B2, “Oils with anti-inflammatory activity containing natural specialized proresolving mediators and their precursors” (Solutex NA LLC, priority 2012, dated 2024)

Tests used:
[1] = tested on: zymosan A-induced peritoneal inflammation (inflammatory exudate cells); experiment: Murine peritoneal inflammation induced by zymosan A, exudate cells by FACS; assay type: in vivo, mouse; details: 4 hours after 0.1 mg zymosan A i.p., vs vehicle
Method: With respect to 17-HDHA, it is possible that the anti-inflammatory activity of oil fraction 1 (shown in FIG. 1A) can therefore be explained, at least in part, due to the selective enrichment of this anti-inflammatory SPM precursor into this oil fraction. In order to determine the anti-inflammatory action and contribution of 17-HDHA, the anti-inflammatory effect of fraction 1 was determined in a well-known model of sterile inflammation. […] Vehicle (100 microliter sterile salive), 100 microliter oil fraction 1, or 1 microgram synthetic 17S-HDHA (Cayman Chemicals) in sterile salive was administered by gavage 30 minutes prior to intraperitoneal injection of 0.1 mg zymosan A. Oil fraction 1 analyzed here is the same as fraction number 1 shown in FIGS. 1, 2, and 3. After 4 hours, the inflammatory exudate was recovered and the changes in the number and types of inflammatory cells determined by fluorescent-activated cell sorting employing specific fluorescently-labeled antibodies. Values are mean±standard error of the mean of […] individual mice. Statistically significant differences (Student's t-test) are indicated by * (P<0,05) or # (P<0,10) for comparisons of inflammatory exudate cell numbers obtained after treatment with oil fraction 1 or compared to the vehicle-treated mice. […] This anti-inflammatory effect was reproduced by the oral administration (gavage) of 17S-HDHA.

[2] = tested on: LPS-induced inflammation (neutrophil infiltration, myeloperoxidase bioluminescence); experiment: Murine subcutaneous LPS-induced inflammation, neutrophil activity by luminol bioluminescence; assay type: in vivo, mouse; details: given by gavage 30 min prior to LPS (oil fraction 100 microliter; indomethacin 10 mg/kg), vs vehicle
Excerpt: To evaluate the anti-inflammatory activity of distinct fatty acid-ethyl ester oil fractions obtained during supercritical fluid chromatography (SFC) for the industrial-scale manufacturing of EPA-ethyl ester and DHA-ethyl ester concentrates, a murine model of subcutaneous sterile inflammation was established which permitted measuring the effects of orally administered oil fractions on the pro-inflammatory phase of the inflammatory response. […] In order to initiate inflammation, Escherichia coli lipopolysaccharide (LPS; serotype 127:B8, purified by trichloroacetic acid extraction, Sigma-Aldrich) was injected sub-cutaneously as a single dose (5 milligram per kilogram in a 200 microliter volume of sterile […] dorsal hind flank of a mouse (CD1 mice of 9 weeks age and weighing approximately 30 grams, purchased from the Charles River company). Neutrophil infiltration into the site of inflammation was measured non-invasively by bioluminescence emitted by conversion of luminol by the neutrophil enzyme myeloperoxidase (Gross, 2009), permitting assessment of inflammatory changes over a 6 hour time period. […]

[3] = gavage 30 min prior (100 microliter oil fraction or 1 microgram 17S-HDHA)

Row | Compound | number of polymorphonuclear leukocytes (PMN) in exudate [1, 3] | total number of exudate cells [1, 3] | monocytes, macrophages or lymphocytes in exudate ([1]; gavage 30 min prior) | reduction of LPS-induced inflammation ([2]; 3 hours after LPS s.c.) | reduction of LPS-induced inflammation ([2]; 6 hours after LPS s.c.)
1 | CC/C=C\C[C@H](O)/C=C/C=C\C/C=C\C/C=C\C/C=C\CCC(=O)O [17S-HDHA, 17S-hydroxy-docosa-4Z,7Z,10Z,13Z,15E,19Z-hexaenoic acid] | reproduced | reproduced | No statistically significant changes |  | 
2 | COc1ccc2c(c1)c(CC(=O)O)c(C)n2C(=O)c1ccc(Cl)cc1 [indomethacin] |  |  |  | 26% | 44%
